Experimental data as given in ChEMBL document CHEMBL1201862, “PubChem BioAssay data set” (2004).
Calls of active or inactive are those of the source.

Key:
Type in all cases: functional
[1] = biological target: Protein kinase C theta type (Homo sapiens, UniProt Q04759); experiment: Navigating the Kinome. Panel member name: PRKCQ
[2] = biological target: Tyrosine-protein kinase JAK3 (Homo sapiens, UniProt P52333)
[3] = biological target: T1, Serine/threonine-protein kinase Chk1 (Homo sapiens, UniProt O14757);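 note: measured as one member of a kinome-wide kinase profiling panel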
T1 sequence (O14757 whole entry): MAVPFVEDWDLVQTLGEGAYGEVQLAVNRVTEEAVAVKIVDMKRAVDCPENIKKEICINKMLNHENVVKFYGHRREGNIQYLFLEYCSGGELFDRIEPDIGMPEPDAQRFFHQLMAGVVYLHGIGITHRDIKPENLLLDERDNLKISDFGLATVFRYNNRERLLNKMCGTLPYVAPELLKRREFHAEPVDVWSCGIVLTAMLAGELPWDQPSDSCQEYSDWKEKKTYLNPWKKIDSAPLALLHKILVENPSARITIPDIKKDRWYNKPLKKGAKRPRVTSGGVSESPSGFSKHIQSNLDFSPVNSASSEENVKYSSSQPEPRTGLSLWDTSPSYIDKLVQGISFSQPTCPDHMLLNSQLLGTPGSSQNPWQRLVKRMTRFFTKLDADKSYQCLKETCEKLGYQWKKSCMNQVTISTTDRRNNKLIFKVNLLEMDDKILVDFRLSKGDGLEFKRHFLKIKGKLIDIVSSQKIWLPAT

[4] = biological target: Platelet-derived growth factor receptor alpha (Homo sapiens, UniProt P16234); experiment: Navigating the Kinome. Panel member name: PDGFRA
Platelet-derived growth factor receptor alpha, sequence (P16234 whole entry): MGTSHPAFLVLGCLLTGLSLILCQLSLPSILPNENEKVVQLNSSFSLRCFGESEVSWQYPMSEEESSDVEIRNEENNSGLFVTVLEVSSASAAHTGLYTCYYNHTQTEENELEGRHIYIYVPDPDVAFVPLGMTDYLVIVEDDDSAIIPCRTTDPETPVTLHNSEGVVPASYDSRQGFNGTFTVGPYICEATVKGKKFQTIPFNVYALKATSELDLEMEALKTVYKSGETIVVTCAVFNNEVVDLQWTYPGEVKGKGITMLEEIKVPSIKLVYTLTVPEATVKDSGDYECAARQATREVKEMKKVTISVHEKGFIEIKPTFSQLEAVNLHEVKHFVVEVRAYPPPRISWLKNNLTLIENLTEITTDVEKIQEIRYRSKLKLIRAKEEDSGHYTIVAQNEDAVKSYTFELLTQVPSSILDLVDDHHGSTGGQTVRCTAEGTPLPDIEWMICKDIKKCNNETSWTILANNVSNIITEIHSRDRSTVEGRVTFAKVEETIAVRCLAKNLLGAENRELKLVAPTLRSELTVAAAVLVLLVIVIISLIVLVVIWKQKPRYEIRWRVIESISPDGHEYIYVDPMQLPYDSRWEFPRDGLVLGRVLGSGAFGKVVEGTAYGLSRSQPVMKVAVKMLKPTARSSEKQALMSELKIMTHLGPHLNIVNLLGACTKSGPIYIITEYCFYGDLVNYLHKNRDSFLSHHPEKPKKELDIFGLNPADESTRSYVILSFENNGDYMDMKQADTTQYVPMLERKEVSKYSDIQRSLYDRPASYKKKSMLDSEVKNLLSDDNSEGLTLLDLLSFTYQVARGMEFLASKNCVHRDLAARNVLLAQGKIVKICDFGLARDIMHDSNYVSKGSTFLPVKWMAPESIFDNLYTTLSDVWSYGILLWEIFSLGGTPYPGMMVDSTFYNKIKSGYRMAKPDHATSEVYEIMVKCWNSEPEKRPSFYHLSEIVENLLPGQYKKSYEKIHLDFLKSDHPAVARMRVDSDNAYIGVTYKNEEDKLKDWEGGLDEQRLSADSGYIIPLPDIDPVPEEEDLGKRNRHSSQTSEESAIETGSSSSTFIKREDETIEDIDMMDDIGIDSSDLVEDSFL

[5] = biological target: 5'-AMP-activated protein kinase catalytic subunit alpha-1 (Homo sapiens, UniProt Q13131)
[6] = biological target: Serine/threonine-protein kinase TBK1 (Homo sapiens, UniProt Q9UHD2); experiment: Navigating the Kinome. Panel member name: TBK1
[7] = biological target: Calcium/calmodulin-dependent protein kinase type II subunit alpha (Homo sapiens, UniProt Q9UQM7); experiment: Navigating the Kinome. Panel member name: CAMK2A
[8] = biological target: Serine/threonine-protein kinase D3 (Homo sapiens, UniProt O94806);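 note: determined within a kinase panel screen, with PRKCN as the panel member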
Serine/threonine-protein kinase D3, sequence (O94806 whole entry): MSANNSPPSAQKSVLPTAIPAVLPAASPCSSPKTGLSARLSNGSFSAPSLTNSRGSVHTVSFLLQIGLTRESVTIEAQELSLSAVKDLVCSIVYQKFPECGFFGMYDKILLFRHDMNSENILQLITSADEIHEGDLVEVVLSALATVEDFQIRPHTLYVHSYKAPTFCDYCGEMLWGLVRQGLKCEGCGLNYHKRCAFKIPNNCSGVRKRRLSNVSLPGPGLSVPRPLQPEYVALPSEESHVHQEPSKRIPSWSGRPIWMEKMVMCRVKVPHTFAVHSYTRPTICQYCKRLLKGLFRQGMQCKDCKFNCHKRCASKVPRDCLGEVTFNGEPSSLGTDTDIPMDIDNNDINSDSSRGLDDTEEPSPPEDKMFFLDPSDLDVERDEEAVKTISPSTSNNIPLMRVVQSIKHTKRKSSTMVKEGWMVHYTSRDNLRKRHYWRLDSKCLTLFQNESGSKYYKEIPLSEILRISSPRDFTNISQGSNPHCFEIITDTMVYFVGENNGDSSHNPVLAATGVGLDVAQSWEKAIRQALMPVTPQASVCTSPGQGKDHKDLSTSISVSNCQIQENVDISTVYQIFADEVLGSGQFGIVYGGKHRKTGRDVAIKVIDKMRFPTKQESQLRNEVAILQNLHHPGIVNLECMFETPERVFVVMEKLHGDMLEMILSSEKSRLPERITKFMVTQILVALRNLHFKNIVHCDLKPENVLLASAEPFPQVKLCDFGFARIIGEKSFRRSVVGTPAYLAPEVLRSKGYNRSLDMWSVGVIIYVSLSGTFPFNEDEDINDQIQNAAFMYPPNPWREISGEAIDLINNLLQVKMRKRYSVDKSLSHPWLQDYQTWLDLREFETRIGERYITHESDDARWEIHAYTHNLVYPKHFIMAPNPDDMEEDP

[9] = biological target: Inhibitor of nuclear factor kappa-B kinase subunit epsilon (Homo sapiens, UniProt Q14164); experiment: Navigating the Kinome. Panel member name: IKBKE
[10] = biological target: Proto-oncogene tyrosine-protein kinase receptor Ret (Homo sapiens, UniProt P07949);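 note: measured within a kinome-wide profiling panel, RET as the panel member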
[11] = biological target: Dual specificity mitogen-activated protein kinase kinase 1 (Homo sapiens, UniProt Q02750); experiment: Navigating the Kinome. Panel member name: MAP2K1
Dual specificity mitogen-activated protein kinase kinase 1, sequence (Q02750 whole entry): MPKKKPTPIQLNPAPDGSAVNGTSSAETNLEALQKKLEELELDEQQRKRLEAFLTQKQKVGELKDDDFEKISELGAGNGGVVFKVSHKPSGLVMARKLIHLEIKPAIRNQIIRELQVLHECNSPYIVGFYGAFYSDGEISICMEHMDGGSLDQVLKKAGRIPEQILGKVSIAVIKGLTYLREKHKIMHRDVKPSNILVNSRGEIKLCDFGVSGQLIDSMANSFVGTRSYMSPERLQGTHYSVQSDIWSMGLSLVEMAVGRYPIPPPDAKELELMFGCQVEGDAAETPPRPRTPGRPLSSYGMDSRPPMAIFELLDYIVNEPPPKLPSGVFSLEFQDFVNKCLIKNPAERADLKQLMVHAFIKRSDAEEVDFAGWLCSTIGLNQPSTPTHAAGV

Aurora kinase A = biological target: T2, Aurora kinase A (Homo sapiens, UniProt O14965);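 note: value from the Navigating the Kinome kinase panel profiling, panel entry STK6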
T2 sequence (O14965 whole entry): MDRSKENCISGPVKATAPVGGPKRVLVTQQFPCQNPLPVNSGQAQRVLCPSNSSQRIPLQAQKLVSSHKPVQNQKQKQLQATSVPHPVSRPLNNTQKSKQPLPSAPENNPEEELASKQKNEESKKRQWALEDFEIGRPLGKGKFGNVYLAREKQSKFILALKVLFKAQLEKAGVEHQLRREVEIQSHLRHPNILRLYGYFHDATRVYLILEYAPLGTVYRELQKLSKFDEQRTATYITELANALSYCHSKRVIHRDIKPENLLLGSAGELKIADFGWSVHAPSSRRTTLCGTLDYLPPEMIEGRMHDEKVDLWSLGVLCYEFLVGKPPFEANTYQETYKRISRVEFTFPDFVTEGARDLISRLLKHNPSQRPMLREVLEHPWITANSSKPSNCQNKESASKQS

[12] = biological target: Cyclin-dependent kinase 8 (Homo sapiens, UniProt P49336); experiment: Navigating the Kinome. Panel member name: CDK8
Cyclin-dependent kinase 8, sequence (P49336 whole entry): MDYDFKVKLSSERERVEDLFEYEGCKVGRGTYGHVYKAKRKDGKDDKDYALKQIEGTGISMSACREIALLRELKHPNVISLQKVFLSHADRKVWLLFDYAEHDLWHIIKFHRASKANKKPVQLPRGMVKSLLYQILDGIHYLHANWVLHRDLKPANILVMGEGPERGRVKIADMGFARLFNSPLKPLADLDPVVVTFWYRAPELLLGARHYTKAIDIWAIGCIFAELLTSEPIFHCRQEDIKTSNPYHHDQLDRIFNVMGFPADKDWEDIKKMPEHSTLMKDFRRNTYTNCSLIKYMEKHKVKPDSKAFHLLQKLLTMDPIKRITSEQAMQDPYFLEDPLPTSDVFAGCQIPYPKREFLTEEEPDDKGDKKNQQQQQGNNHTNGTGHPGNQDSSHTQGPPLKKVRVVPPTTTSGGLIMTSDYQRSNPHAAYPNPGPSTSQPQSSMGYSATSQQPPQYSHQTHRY

[13] = biological target: Tyrosine-protein kinase receptor TYRO3 (Homo sapiens, UniProt Q06418);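 note: TYRO3 value obtained as one member of a kinome-wide profiling panel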
Tyrosine-protein kinase receptor TYRO3, sequence (Q06418 whole entry): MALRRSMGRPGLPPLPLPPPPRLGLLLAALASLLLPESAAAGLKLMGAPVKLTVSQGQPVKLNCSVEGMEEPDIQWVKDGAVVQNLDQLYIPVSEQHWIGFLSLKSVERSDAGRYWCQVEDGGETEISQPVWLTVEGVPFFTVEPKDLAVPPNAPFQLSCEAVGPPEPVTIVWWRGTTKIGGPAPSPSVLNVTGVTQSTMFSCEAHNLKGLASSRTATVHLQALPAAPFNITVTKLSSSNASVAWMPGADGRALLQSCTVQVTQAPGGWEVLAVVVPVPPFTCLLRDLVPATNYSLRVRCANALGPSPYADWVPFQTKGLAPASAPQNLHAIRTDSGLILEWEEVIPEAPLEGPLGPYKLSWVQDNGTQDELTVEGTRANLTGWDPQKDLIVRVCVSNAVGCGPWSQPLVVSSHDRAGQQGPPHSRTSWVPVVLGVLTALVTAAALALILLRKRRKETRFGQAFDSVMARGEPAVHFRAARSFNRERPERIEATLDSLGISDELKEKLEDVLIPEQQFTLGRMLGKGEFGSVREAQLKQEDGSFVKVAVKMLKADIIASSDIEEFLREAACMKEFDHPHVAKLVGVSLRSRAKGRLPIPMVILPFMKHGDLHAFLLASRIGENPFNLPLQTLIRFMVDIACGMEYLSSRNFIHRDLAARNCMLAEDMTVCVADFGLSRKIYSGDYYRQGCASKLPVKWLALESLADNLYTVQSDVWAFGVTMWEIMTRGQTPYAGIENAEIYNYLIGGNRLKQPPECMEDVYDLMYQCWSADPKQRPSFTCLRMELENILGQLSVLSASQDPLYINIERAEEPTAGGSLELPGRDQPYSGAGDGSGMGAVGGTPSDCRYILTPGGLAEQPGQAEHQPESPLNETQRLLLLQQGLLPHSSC

[14] = biological target: Dual specificity tyrosine-phosphorylation-regulated kinase 1B (Homo sapiens, UniProt Q9Y463); experiment: Navigating the Kinome. Panel member name: DYRK1B
[15] = biological target: Death-associated protein kinase 3 (Homo sapiens, UniProt O43293);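 note: measured as one member of a kinome-wide profiling panel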
[16] = biological target: Glycogen synthase kinase-3 alpha (Homo sapiens, UniProt P49840);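 note: GSK3A result taken from a broad kinome-wide kinase panel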
Glycogen synthase kinase-3 alpha, sequence (P49840 whole entry): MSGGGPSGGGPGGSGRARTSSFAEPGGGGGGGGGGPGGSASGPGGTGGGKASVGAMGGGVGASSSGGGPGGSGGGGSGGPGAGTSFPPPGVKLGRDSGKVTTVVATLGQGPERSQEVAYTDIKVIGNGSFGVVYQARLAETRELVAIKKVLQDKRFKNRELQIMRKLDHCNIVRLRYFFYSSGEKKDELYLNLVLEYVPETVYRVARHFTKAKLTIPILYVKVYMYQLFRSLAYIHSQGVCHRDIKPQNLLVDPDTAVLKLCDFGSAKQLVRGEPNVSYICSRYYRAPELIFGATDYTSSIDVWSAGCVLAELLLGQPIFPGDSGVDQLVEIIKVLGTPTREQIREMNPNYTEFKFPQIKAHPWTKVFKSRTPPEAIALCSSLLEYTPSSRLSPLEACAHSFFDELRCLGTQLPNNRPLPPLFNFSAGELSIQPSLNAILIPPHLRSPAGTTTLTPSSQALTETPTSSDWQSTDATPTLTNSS

[17] = biological target: Receptor-type tyrosine-protein kinase FLT3 (Homo sapiens, UniProt P36888);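 note: FLT3 was tested as one member of a kinome-wide kinase panel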
[18] = biological target: Cyclin-dependent kinase 5 (Homo sapiens, UniProt Q00535);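 note: CDK5 measured as one member of a kinase profiling panel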
[19] = biological target: Cyclin-dependent kinase 9 (Homo sapiens, UniProt P50750);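 note: value from the CDK9 entry of a kinome-spanning kinase panel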
Cyclin-dependent kinase 9, sequence (P50750 whole entry): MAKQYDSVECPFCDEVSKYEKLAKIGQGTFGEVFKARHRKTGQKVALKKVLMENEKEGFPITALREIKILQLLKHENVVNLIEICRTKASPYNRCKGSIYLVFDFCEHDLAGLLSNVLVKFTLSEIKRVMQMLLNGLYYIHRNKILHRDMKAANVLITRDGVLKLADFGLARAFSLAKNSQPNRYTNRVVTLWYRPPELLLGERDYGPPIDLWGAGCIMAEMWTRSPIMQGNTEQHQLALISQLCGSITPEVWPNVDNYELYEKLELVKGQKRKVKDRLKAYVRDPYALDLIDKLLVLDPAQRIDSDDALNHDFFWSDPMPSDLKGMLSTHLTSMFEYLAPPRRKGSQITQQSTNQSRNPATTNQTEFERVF

[20] = biological target: Platelet-derived growth factor receptor beta (Homo sapiens, UniProt P09619);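 note: value comes from a kinome panel, with PDGFRB tested as one panel member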
[21] = biological target: Serine/threonine-protein kinase pim-1 (Homo sapiens, UniProt P11309)
[22] = biological target: Mitogen-activated protein kinase 8 (Homo sapiens, UniProt P45983);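 note: value comes from one member of a kinome-wide kinase profiling panel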
Focal adhesion kinase 1 = Focal adhesion kinase 1 (Homo sapiens, UniProt Q05397);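 note: measured as one member of a kinome panel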
Activin receptor type-1 = Activin receptor type-1 (Homo sapiens, UniProt Q04771); experiment: Navigating the Kinome. Panel member name: ACVR1
[23] = biological target: Serine/threonine-protein kinase Nek2 (Homo sapiens, UniProt P51955)
Serine/threonine-protein kinase Nek2, sequence (P51955 whole entry): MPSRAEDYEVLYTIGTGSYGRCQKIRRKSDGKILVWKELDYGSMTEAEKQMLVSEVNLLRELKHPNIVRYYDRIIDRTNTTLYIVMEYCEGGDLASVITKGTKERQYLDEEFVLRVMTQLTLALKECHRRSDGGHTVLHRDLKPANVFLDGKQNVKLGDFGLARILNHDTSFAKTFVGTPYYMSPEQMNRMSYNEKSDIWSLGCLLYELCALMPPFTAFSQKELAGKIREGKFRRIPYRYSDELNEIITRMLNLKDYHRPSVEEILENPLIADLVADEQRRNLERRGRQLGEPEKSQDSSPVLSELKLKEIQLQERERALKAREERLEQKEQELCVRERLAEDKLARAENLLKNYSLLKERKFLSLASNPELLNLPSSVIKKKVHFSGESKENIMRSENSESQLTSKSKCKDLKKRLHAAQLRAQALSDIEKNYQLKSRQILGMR

[24] = biological target: Serine/threonine-protein kinase PAK 4 (Homo sapiens, UniProt O96013);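 note: value obtained within a kinome profiling panel in which PAK4 was one of the panel members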
[25] = biological target: Fibroblast growth factor receptor 1 (Homo sapiens, UniProt P11362)
Activated CDC42 kinase 1 = Activated CDC42 kinase 1 (Homo sapiens, UniProt Q07912); experiment: Navigating the Kinome. Panel member name: ACK1
[26] = biological target: Dual specificity protein kinase CLK2 (Homo sapiens, UniProt P49760)
[27] = biological target: Tyrosine-protein kinase BTK (Homo sapiens, UniProt Q06187)
[28] = biological target: Leukocyte tyrosine kinase receptor (Homo sapiens, UniProt P29376); experiment: Navigating the Kinome. Panel member name: LTK
LIM domain kinase 1 = LIM domain kinase 1 (Homo sapiens, UniProt P53667); experiment: Navigating the Kinome. Panel member name: LIMK1
[29] = biological target: Dual specificity tyrosine-phosphorylation-regulated kinase 1A (Homo sapiens, UniProt Q13627);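 note: measured against DYRK1A as one member of a broad kinome profiling panel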
[30] = biological target: Ribosomal protein S6 kinase alpha-3 (Homo sapiens, UniProt P51812);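 note: measured within a kinome-wide profiling panel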

SMILES: COc1cc2c(cc1Nc1nc(Nc3cccc(F)c3C(N)=O)c3cc[nH]c3n1)N(C(=O)CN(C)C)CC2
- Ki [1]: > 2.51 µM (inactive)
- Ki [2]: > 5.01 µM (inactive)
- Ki [3]: 2.51 µM (active)
- Ki [4]: > 2.51 µM (inactive)
- Ki [5]: > 3.16 µM (inactive)
- Ki [6]: > 3.16 µM (inactive)
- Ki [7]: > 3.98 µM (inactive)
- Ki [8]: 398 nM (active)
- Ki [9]: > 3.16 µM (inactive)
- Ki [10]: > 3.16 µM (inactive)
- Ki [11]: > 3.16 µM (inactive)
- Ki (Aurora kinase A): > 1.58 µM (inactive)
- Ki [12]: > 3.98 µM (inactive)
- Ki [13]: > 3.16 µM (inactive)
- Ki [14]: 1.26 µM (active)
- Ki [15]: 0.1 µM (active)
- Ki [16]: > 3.98 µM (inactive)
- Ki [17]: > 2.51 µM (inactive)
- Ki [18]: > 3.16 µM (inactive)
- Ki [19]: > 1.58 µM (inactive)
- Ki [20]: > 2 µM (inactive)
- Ki [21]: 3.98 µM (active)
- Ki [22]: 0.158 µM (active)
- Ki (Focal adhesion kinase 1): 0.0398 µM (active)
- Ki (Activin receptor type-1): > 3.98 µM (inactive)
- Ki [23]: > 3.16 µM (inactive)
- Ki [24]: > 5.01 µM (inactive)
- Ki [25]: > 3.98 µM (inactive)
- Ki (Activated CDC42 kinase 1): 2 µM (active)
- Ki [26]: 0.0316 µM (active)
- Ki [27]: > 6.31 µM (inactive)
- Ki [28]: 1.58 nM (active)
- Ki (LIM domain kinase 1): > 3.16 µM (inactive)
- Ki [29]: > 1.58 µM (inactive)
- Ki [30]: 0.631 µM (active)

SMILES: O=c1[nH][nH]c2ccc(Br)cc12
- Ki [1]: 31.6 µM (active)
- Ki [2]: 25.1 µM (active)
- Ki [3]: 2.51 µM (active)
- Ki [4]: 15.8 µM (active)
- Ki [5]: 12.6 µM (active)
- Ki [6]: 31.6 µM (active)
- Ki [7]: 31.6 µM (active)
- Ki [8]: 3160 nM (active)
- Ki [9]: 7.94 µM (active)
- Ki [10]: 25.1 µM (active)
- Ki [11]: 25.1 µM (active)
- Ki (Aurora kinase A): 7.94 µM (active)
- Ki [12]: 10 µM (active)
- Ki [13]: 10 µM (active)
- Ki [14]: 3.16 µM (active)
- Ki [15]: 7.94 µM (active)
- Ki [16]: 39.8 µM (active)
- Ki [17]: 79.4 µM (active)
- Ki [18]: 3.16 µM (active)
- Ki [19]: 5.01 µM (active)
- Ki [20]: 63.1 µM (active)
- Ki [21]: 15.8 µM (active)
- Ki [22]: 25.1 µM (active)
- Ki (Focal adhesion kinase 1): 31.6 µM (active)
- Ki (Activin receptor type-1): 7.94 µM (active)
- Ki [23]: 6.31 µM (active)
- Ki [24]: 50.1 µM (active)
- Ki [25]: 31.6 µM (active)
- Ki (Activated CDC42 kinase 1): 31.6 µM (active)
- Ki [26]: 15.8 µM (active)
- Ki [27]: 31.6 µM (active)
- Ki [28]: 5010 nM (active)
- Ki (LIM domain kinase 1): 3.16 µM (active)
- Ki [29]: 1.58 µM (active)
- Ki [30]: 31.6 µM (active)
